Measured values reported in ChEMBL document CHEMBL5649166, “RIP3 induces apoptosis independent of pronecrotic kinase activity” (Mol Cell, 2014).

Columns and labels:
[1] = target: T1, Ephrin type-B receptor 1 (Homo sapiens) (UniProt P54762); assay: Inhibition of human EPHB1 using poly[Glu:Tyr] (4:1) as substrate at 1 uM in presence of 32P-ATP by Hotspot assay relative to control; values are per cent of control
T1 sequence (whole entry): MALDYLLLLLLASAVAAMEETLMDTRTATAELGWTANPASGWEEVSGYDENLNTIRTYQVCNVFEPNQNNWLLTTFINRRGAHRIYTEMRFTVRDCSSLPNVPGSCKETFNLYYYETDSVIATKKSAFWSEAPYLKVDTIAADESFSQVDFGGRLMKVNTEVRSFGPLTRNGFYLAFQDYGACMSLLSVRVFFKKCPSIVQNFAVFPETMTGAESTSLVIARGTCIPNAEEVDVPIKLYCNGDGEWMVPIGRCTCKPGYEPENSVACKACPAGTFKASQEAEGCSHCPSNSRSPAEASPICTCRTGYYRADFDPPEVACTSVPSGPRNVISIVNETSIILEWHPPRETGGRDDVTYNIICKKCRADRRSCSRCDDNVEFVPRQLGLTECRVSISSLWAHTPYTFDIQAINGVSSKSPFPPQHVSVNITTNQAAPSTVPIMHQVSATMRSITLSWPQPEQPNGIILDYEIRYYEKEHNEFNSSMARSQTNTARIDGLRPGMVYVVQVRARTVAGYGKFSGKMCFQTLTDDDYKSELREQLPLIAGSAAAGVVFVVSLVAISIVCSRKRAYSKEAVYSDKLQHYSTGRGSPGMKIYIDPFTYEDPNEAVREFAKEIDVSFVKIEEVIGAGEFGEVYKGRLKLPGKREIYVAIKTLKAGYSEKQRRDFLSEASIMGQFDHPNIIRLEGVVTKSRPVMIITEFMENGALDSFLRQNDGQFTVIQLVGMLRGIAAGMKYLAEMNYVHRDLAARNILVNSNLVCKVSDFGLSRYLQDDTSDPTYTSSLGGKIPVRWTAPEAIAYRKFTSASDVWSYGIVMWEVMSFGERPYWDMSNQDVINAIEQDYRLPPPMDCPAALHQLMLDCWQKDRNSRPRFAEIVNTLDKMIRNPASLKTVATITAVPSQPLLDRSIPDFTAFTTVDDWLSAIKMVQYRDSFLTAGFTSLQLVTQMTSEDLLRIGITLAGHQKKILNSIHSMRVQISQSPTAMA

[2] = target: CDK1/Cyclin A (Homo sapiens) (UniProt P06493+P20248); assay: Inhibition of human CDK1/cyclin A using RB Protein as substrate at 1 uM in presence of 32P-ATP by Hotspot assay relative to control; values are per cent of control
CDK1/Cyclin A (Homo sapiens), sequence (P06493 whole entry, looked up): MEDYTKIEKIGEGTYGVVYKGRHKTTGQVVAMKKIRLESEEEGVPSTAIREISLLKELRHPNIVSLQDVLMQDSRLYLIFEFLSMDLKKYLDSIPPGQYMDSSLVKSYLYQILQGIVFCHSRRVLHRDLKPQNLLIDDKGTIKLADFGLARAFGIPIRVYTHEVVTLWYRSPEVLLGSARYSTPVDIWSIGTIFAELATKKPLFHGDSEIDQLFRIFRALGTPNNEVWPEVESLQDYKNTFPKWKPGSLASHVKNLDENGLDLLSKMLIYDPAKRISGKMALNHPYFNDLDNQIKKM
CDK1/Cyclin A (Homo sapiens), sequence (P20248 whole entry, looked up): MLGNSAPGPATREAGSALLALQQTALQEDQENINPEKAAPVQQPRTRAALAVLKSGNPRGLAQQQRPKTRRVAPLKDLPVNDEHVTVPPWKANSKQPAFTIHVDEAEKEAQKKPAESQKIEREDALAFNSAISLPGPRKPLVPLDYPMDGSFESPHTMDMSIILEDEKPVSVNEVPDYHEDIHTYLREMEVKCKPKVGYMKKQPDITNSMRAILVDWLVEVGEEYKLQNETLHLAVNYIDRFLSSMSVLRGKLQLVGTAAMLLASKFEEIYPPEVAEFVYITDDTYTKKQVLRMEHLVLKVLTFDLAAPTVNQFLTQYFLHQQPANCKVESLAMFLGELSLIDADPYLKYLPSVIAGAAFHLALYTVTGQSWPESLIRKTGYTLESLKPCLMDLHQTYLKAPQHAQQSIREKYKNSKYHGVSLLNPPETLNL

[3] = target: Protein-tyrosine kinase 2-beta (Homo sapiens) (UniProt Q14289); assay: Inhibition of human PYK2 using poly[Glu:Tyr] (4:1) as substrate at 1 uM in presence of 32P-ATP by Hotspot assay relative to control; values are per cent of control
Protein-tyrosine kinase 2-beta (Homo sapiens), sequence (Q14289 whole entry, looked up): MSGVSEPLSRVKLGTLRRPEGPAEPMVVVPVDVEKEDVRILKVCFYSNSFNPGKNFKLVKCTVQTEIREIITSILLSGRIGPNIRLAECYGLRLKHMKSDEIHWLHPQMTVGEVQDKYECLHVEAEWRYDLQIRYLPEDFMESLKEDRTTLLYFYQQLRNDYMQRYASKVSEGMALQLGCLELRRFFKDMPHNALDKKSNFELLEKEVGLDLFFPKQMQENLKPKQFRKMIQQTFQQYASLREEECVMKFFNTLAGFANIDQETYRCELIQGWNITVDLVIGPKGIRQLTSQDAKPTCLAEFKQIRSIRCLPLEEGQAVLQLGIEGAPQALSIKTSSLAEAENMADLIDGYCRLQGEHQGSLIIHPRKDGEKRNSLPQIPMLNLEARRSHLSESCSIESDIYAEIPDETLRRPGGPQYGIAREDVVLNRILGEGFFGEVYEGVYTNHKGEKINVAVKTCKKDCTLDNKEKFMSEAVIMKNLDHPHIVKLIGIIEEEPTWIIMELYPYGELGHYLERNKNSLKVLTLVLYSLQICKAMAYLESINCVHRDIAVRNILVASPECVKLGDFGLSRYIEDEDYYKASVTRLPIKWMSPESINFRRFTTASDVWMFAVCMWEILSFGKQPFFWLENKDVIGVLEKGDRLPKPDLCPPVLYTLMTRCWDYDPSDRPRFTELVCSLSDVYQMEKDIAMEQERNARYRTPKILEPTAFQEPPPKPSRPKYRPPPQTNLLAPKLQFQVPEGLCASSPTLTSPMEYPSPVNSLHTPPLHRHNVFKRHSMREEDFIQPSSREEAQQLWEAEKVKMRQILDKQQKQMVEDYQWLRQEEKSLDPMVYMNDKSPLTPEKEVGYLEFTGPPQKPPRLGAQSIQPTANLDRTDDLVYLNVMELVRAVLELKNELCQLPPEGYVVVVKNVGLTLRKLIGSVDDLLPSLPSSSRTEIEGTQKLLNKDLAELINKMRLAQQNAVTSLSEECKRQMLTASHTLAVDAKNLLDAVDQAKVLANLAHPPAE

[4] = target: T2, Activin receptor type-1 (Homo sapiens) (UniProt Q04771); assay: Inhibition of human ALK2/ACVR1 using casein as substrate at 1 uM in presence of 32P-ATP by Hotspot assay relative to control; values are per cent of control
T2 sequence (whole entry): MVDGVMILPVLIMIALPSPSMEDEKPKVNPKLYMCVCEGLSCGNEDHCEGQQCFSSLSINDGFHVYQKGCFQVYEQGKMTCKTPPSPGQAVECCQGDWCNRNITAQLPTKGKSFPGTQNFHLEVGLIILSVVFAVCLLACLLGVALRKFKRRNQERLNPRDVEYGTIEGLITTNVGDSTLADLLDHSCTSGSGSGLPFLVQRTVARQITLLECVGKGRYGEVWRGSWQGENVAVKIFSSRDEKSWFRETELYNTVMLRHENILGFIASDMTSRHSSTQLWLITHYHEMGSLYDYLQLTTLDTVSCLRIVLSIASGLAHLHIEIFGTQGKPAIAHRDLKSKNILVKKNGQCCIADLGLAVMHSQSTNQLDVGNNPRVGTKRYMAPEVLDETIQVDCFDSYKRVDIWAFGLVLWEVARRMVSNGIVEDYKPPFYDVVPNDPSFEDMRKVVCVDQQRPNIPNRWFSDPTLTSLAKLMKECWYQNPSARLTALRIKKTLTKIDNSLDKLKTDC

[5] = target: Casein kinase II subunit alpha (Homo sapiens) (UniProt P68400); assay: Inhibition of human CK2a using RRRDDDSDDD as substrate at 1 uM in presence of 32P-ATP by Hotspot assay relative to control; values are per cent of control
Casein kinase II subunit alpha (Homo sapiens), sequence (P68400 whole entry, looked up): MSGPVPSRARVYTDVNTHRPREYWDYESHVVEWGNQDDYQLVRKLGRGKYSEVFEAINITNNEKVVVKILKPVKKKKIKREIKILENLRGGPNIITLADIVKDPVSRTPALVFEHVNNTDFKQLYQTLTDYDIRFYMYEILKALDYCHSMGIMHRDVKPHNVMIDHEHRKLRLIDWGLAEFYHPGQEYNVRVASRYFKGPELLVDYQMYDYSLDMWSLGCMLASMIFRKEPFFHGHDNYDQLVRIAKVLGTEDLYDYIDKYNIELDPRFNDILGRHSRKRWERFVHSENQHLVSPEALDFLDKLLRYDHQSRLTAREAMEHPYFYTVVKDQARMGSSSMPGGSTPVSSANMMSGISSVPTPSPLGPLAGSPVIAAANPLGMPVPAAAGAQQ

[6] = target: Ribosomal protein S6 kinase alpha-5 (Homo sapiens) (UniProt O75582); assay: Inhibition of human MSK1/RPS6KA5 using GRPRTSSFAEG as substrate at 1 uM in presence of 32P-ATP by Hotspot assay relative to control; values are per cent of control
Ribosomal protein S6 kinase alpha-5 (Homo sapiens), sequence (O75582 whole entry, looked up): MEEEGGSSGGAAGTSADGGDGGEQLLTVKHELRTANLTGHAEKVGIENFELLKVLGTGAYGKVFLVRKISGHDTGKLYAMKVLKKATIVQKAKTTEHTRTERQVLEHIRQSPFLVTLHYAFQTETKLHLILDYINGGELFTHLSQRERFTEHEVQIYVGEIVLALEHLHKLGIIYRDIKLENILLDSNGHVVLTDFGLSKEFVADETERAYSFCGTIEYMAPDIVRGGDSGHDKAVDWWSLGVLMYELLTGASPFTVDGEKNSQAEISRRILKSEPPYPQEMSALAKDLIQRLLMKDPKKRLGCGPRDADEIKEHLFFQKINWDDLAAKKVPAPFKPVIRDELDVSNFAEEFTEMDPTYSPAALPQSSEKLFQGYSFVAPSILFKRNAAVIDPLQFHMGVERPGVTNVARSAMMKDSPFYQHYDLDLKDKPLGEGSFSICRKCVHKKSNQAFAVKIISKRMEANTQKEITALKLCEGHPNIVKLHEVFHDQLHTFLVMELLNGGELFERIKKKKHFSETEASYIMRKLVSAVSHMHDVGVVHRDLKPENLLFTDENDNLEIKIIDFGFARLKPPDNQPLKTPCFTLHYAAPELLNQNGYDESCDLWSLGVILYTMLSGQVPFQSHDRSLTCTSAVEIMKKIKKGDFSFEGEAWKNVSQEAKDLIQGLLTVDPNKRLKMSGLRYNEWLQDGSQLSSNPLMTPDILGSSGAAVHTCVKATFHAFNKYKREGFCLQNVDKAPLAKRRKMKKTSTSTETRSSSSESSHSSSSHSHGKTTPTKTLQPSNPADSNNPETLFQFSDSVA

[7] = target: Activin receptor type-1-like (Homo sapiens) (UniProt P37023); assay: Inhibition of human ALK1/ACVRL1 using casein as substrate at 1 uM in presence of 32P-ATP by Hotspot assay relative to control; values are per cent of control
Activin receptor type-1-like (Homo sapiens), sequence (P37023 whole entry): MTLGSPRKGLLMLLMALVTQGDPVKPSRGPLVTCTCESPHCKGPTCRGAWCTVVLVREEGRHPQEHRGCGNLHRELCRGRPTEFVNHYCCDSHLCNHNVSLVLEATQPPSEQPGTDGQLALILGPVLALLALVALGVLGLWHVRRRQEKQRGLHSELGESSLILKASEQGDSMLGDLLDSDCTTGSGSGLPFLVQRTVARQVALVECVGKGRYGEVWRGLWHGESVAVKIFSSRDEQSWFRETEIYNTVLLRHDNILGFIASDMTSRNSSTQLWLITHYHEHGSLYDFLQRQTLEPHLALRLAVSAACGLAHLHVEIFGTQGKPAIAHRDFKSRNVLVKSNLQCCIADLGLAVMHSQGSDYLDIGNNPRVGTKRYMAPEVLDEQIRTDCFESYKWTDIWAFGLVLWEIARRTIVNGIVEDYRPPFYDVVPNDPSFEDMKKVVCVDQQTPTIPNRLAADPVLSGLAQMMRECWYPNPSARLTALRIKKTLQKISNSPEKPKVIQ

SMILES | residual activity [1] [%] | residual activity [2] [%] | residual activity [3] [%] | residual activity [4] [%] | residual activity [5] [%] | residual activity [6] [%] | residual activity [7] [%]
CC(C)S(=O)(=O)c1ccc2nccc(Nc3ccc4scnc4c3)c2c1 | 79 | 88.6 | 95.5 | 102 | 92.4 | 97.9 | 102
Cc1cc(-c2cnc(N)c3c(-c4ccc5scnc5c4)csc23)n(C)n1 | 36.8 | 98.9 | 105 | 101 | 54.7 | 97.4 | 93.9
CNC(=O)c1ccc2c(c1)ncn2-c1ccc(CC(=O)OC(C)(C)C)cc1 | 104 | 94.5 | 96.4 | 80.4 | 75.6 | 89.4 | 95.4
